{"source": "patent US11077194B2", "about": "“Nitric oxide releasing pharmaceutical compositions” (Novan, Inc., priority 2012, dated 2021)", "tested_on": "oxazolone-induced ear swelling", "assay": "Oxazolone-induced ear swelling assay (model of allergic contact dermatitis)", "assay_type": "in vivo, BALB/c mice", "conditions": "TOP", "method": "Groups of 5 BALB/c male mice weighing 22±2 g were used. The animals were sensitized by application of oxazolone (100 μL, 1.5% in acetone) to their preshaved abdominal surface. Seven days later, test substances (20 mg/ear) and vehicle (20 μL/ear) were applied topically to the anterior and posterior surfaces of the right ear 30 min before and 15 min after oxazolone (1%, 20 μL/ear) challenge. Ear swelling was measured with a Dyer model micrometer gauge at 24 hours after oxazolone challenge as an index of inflammation. Ear edema was calculated by subtracting the thickness of the left ear (normal control) from the right ear (treated ear). Percent inhibition was calculated according to the formula: (Ic−It)/Ic×100, where Ic and It refers to increase of ear thickness (mm) in control and treated mice, respectively. One-way ANOVA and Dunnett's test were used to determine statistical significance between vehicle control and treated groups. Significance is set at P<0.05.\nTest articles (0.2% and 2% Nitricil™ NVN1 Ointment) described in Example 6 were evaluated for possible anti-inflammatory activity in the oxazolone-induced ear swelling assay in BALB/c mice, a model of allergic contact dermatitis. Test substances and vehicles were each administered topically (TOP) at 30 minutes before and 15 minutes after challenge with the second application of oxazolone.\nThe test system used was a 7-day oxazolone-induced ear swelling assay. Oxazolone-induced ear swelling is useful as a model of inflammation. […] Ear swelling was measured with a Dyer model micrometer gauge at 24 hours after oxazolone challenge as an index of inflammation. Ear edema was calculated by subtracting the thickness of the left ear (normal control) from the right ear (treated ear) (Table 18). […]\nPercent inhibition was calculated according to the formula: (Ic−It)/Ic×100, where Ic and It refer to increase of ear thickness (mm) in control and treated mice, respectively. […]", "note": "Marks after values point to notes of the source that are not given here.", "data": [{"compound": "C[C@@H]1C[C@H]2[C@@H]3CCC4=CC(=O)C=C[C@]4(C)[C@@]3(F)[C@@H](O)C[C@]2(C)[C@@]1(O)C(=O)CO", "note": "[Dexamethasone]", "values": [{"measurement": "Ear Swelling % Inhibition (vs. Vehicle A, acetone/ethanol 1/1)", "setting": "Example 7 study, ointments 20 mg/ear × 2, dexamethasone 0.3 mg/ear × 2, 24 hours after challenge", "result": "85* %"}, {"measurement": "% inhibition of oxazolone-induced ear swelling vs acetone/ethanol vehicle", "setting": "Example 9 study, ointments 20 mg/ear × 2, dexamethasone 0.1 mg/ear × 2", "result": 86, "unit": "%"}, {"measurement": "Net Swelling on Right Ear (Mean ± SEM)", "setting": "Example 9 study, ointments 20 mg/ear × 2, dexamethasone 0.1 mg/ear × 2, 24 hours after challenge", "result": "3.2 ± 0.4", "unit": "× 0.01 mm"}]}]}
